Assays:
[1] = target: T1, recombinant human GBA (beta-glucocerebrosidase) (Homo sapiens, UniProt P04062); test: Beta-glucocerebrosidase (GBA, glucosylceramidase) assay (4-methylumbelliferyl-beta-D-pyranoside substrate, fluorescence); type: biochemical
T1 sequence (P04062 40-536): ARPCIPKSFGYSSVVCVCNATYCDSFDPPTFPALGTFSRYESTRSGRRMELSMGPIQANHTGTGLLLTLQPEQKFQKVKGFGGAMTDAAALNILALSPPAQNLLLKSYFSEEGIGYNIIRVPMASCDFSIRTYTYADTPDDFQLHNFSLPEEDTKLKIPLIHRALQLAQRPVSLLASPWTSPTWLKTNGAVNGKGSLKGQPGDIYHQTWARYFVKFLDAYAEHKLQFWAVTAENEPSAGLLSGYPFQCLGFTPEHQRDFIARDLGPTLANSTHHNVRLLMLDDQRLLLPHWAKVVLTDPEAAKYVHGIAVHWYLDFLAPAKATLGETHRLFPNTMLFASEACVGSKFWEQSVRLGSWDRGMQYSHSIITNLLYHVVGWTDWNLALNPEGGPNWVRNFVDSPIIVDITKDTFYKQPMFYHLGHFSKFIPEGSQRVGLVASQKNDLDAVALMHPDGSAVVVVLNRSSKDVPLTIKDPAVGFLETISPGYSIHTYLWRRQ
Procedure, shortened: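 IC50 by four-parameter fit of percent inhibition, with product fluorescence (365/440 nm) read after a glycine/NaOH pH 10 stop. Compound and commercial recombinant human enzyme were incubated 60 min at 37 °C before a further 60 min at 37 °C with 4-methylumbelliferyl-beta-D-pyranoside substrate.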

[2] = target: rat sucrase (partially purified alpha-glucosidase from intestinal rat powder) (Rattus norvegicus, UniProt P23739); test: Intestinal alpha-glucosidase assay, sucrose substrate (Glucose GO Kit); type: biochemical
rat sucrase (partially purified alpha-glucosidase from intestinal rat powder), sequence (P23739 whole entry): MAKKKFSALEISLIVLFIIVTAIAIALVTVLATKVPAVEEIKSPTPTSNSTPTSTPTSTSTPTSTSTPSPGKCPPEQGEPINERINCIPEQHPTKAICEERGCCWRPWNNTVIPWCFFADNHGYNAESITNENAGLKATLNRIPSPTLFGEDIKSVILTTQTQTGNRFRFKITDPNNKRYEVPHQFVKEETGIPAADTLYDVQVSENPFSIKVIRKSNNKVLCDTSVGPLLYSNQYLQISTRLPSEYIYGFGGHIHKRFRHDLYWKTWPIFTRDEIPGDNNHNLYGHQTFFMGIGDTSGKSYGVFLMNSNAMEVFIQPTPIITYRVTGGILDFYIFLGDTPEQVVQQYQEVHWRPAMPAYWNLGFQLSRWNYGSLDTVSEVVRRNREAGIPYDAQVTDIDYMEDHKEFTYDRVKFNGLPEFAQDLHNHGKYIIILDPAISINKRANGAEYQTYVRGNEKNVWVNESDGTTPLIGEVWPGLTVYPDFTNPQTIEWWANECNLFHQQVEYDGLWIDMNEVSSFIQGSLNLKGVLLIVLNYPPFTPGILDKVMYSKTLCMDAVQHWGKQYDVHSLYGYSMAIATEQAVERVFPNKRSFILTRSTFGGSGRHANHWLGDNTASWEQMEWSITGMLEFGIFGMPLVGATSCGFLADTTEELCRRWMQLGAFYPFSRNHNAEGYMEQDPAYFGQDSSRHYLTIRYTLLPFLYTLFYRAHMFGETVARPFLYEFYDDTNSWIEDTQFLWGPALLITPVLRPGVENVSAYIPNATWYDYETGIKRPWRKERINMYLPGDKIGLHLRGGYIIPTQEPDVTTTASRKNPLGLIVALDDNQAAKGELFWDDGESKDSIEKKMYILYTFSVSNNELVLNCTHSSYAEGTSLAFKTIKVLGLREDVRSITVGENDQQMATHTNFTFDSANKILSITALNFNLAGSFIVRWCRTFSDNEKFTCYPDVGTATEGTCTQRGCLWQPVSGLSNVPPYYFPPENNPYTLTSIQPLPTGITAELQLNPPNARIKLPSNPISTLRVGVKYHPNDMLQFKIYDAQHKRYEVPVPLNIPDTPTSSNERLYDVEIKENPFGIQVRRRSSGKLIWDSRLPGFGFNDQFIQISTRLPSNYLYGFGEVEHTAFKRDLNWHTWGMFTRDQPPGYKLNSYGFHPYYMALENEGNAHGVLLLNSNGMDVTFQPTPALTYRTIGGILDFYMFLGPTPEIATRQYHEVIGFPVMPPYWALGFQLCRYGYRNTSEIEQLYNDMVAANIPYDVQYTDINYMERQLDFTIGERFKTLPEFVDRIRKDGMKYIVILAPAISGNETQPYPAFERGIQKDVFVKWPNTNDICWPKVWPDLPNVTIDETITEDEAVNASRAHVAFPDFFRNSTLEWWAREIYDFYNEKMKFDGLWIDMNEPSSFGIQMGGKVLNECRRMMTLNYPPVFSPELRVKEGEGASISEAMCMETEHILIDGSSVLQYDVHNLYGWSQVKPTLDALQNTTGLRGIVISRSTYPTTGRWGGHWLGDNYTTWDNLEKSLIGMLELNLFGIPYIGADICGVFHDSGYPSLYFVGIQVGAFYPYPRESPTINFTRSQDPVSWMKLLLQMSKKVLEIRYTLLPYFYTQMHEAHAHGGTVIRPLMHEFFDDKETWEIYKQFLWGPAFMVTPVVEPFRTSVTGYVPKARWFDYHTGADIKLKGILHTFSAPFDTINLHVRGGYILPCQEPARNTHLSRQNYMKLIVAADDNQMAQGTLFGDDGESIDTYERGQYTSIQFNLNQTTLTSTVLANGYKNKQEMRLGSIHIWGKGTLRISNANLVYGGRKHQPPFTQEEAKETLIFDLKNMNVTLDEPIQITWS
Procedure, shortened: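 Glucose release is the read-out: compounds at multiple dilutions are first held with partially purified rat intestinal alpha-glucosidase for 60 min at 37 °C, after which maltose or sucrose substrate reacts for 30 min at 37 °C before a 5 min 90 °C stop. IC50 comes from a four-parameter logistic fit.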

In the case of `Cc1cc(NCc2cccc(CN3C[C@H](O)[C@@H](O)[C@H](O)[C@H]3CO)n2)cc(N2CCOCC2)c1` [Compound 1336, (2R,3R,4R,5S)-2-(hydroxymethyl)-1-{[6-({[3-methyl-5-(morpholin-4-yl)phenyl]amino}methyl)pyridin-2-yl]methyl}piperidine-3,4,5-triol], the IC50 [1] is reported as > 100000 nM and the IC50 [2] is reported as 21300 nM.

Work on `COc1cc(NCCCCCCN2C[C@H](O)[C@@H](O)[C@H](O)[C@H]2CO)cc(-c2ncccn2)c1` [Compound 1217, (2R,3R,4R,5S)-2-(hydroxymethyl)-1-(6-{[3-methoxy-5-(pyrimidin-2-yl)phenyl]amino}hexyl)piperidine-3,4,5-triol] yielded an IC50 [1] of 981 nM and an IC50 [2] of 225 nM.

`Cc1cc(NCc2cccc(CN3C[C@H](O)[C@@H](O)[C@H](O)[C@H]3CO)c2)cc(N2CCOCC2)c1` [Compound 1031, (2R,3R,4R,5S)-2-(hydroxymethyl)-1-{[3-({[3-methyl-5-(morpholin-4-yl)phenyl]amino}methyl)phenyl]methyl}piperidine-3,4,5-triol] was tested, and the IC50 [1] was > 100000 nM and the IC50 [2] was 288 nM.

With `O=[N+]([O-])c1cc(N2CC3CC2CO3)ccc1NCc1ccc(CN2C[C@@H](O)[C@H](O)[C@@H](O)[C@@H]2CO)cc1` (stereo in doubt) [Compound 1015, (2S,3S,4S,5R)-2-(hydroxymethyl)-1-[(4-{[(2-nitro-4-{2-oxa-5-azabicyclo[2.2.1]heptan-5-yl}phenyl)amino]methyl}phenyl)methyl]piperidine-3,4,5-triol] the IC50 [1] was > 100000 nM and the IC50 [2] was 78 nM.

With `Cc1cc(NCc2cnc(CN3C[C@H](O)[C@@H](O)[C@H](O)[C@H]3CO)cn2)cc(-c2ccc[nH]2)c1` [Compound 1330, (2R,3R,4R,5S)-2-(hydroxymethyl)-1-{[5-({[3-methyl-5-(1H-pyrrol-2-yl)phenyl]amino}methyl)pyrazin-2-yl]methyl}piperidine-3,4,5-triol] the IC50 [1] was 13200 nM and the IC50 [2] was 595 nM.

With `Cc1nc(=O)c2cc(-c3ncccn3)ccc2n1CCCCCCN1C[C@H](O)[C@@H](O)[C@H](O)[C@H]1CO` [Compound 1246, 2-methyl-6-(pyrimidin-2-yl)-1-{6-[(2R,3R,4R,5S)-3,4,5-trihydroxy-2-(hydroxymethyl)piperidin-1-yl]hexyl}-1,4-dihydroquinazolin-4-one] the IC50 [1] was 21600 nM and the IC50 [2] was > 100000 nM.

In the case of `Cc1cc(NCc2cccc(CN3C[C@H](O)[C@@H](O)[C@H](O)[C@H]3CO)c2)cc(-c2ccc[nH]2)c1` [Compound 1033, (2R,3R,4R,5S)-2-(hydroxymethyl)-1-{[3-({[3-methyl-5-(1H-pyrrol-2-yl)phenyl]amino}methyl)phenyl]methyl}piperidine-3,4,5-triol], the IC50 [1] is reported as > 100000 nM and the IC50 [2] is reported as 34 nM.

With `Cc1cc(NCc2cccc(CN3C[C@H](O)[C@@H](O)[C@H](O)[C@H]3CO)c2)cc(C2=COCCO2)c1` [Compound 1032, (2R,3R,4R,5S)-1-{[3-({[3-(5,6-dihydro-1,4-dioxin-2-yl)-5-methylphenyl]amino}methyl)phenyl]methyl}-2-(hydroxymethyl)piperidine-3,4,5-triol] the IC50 [1] was > 100000 nM and the IC50 [2] was 36 nM.

In the case of `N#Cc1ccc(F)cc1NCCCCCCN1C[C@H](O)[C@@H](O)[C@H](O)[C@H]1CO` [Compound 1251, 4-fluoro-2-({6-[(2R,3R,4R,5S)-3,4,5-trihydroxy-2-(hydroxymethyl)piperidin-1-yl]hexyl}amino)benzonitrile], the IC50 [1] is reported as 1410 nM and the IC50 [2] is reported as 38 nM.

For `NS(=O)(=O)c1cc(-c2ncccn2)ccc1NCCCCCCN1C[C@H](O)[C@@H](O)[C@H](O)[C@H]1CO` [Compound 1265, 5-(pyrimidin-2-yl)-2-({6-[(2R,3R,4R,5S)-3,4,5-trihydroxy-2-(hydroxymethyl)piperidin-1-yl]hexyl}amino)benzene-1-sulfonamide], the IC50 [1] was 5080 nM and the IC50 [2] was 98 nM.

For `N#Cc1cc(NCc2cccc(CN3C[C@H](O)[C@@H](O)[C@H](O)[C@H]3CO)c2)cc(N2CCOCC2)c1` [Compound 1042, 3-(morpholin-4-yl)-5-{[(3-{[(2R,3R,4R,5S)-3,4,5-trihydroxy-2-(hydroxymethyl)piperidin-1-yl]methyl}phenyl)methyl]amino}benzonitrile], the IC50 [1] was > 100000 nM and the IC50 [2] was 163 nM.

Work on `[N-]=[N+]=Nc1ccc(NCCN(CCC(N)=O)CCN2C[C@H](O)[C@@H](O)[C@H](O)[C@H]2CO)c([N+](=O)[O-])c1` [Compound 1235] yielded an IC50 [1] of 11400 nM and an IC50 [2] of 8650 nM.

Compound `COc1cc(NCCCCCCN2C[C@H](O)[C@@H](O)[C@H](O)[C@H]2CO)cc(-c2ncco2)c1` [Compound 1216, (2R,3R,4R,5S)-2-(hydroxymethyl)-1-(6-{[3-methoxy-5-(1,3-oxazol-2-yl)phenyl]amino}hexyl)piperidine-3,4,5-triol] has an IC50 [1] of 2140 nM and an IC50 [2] of 796 nM.

For `Cc1cc(Br)cc(NCc2cccc(CN3C[C@H](O)[C@@H](O)[C@H](O)[C@H]3CO)c2)c1` [Compound 1021, (2R,3R,4R,5S)-1-[(3-{[(3-bromo-5-methylphenyl)amino]methyl}phenyl)methyl]-2-(hydroxymethyl)piperidine-3,4,5-triol], the IC50 [1] was 25800 nM and the IC50 [2] was 1 nM.

With `Nc1ccc(NCCc2ccccc2CCN2C[C@H](O)[C@@H](O)[C@H](O)[C@H]2CO)c([N+](=O)[O-])c1Cl` [Compound 1239, (2R,3R,4R,5S)-1-[2-(2-{2-[(4-amino-3-chloro-2-nitrophenyl)amino]ethyl}phenyl)ethyl]-2-(hydroxymethyl)piperidine-3,4,5-triol] the IC50 [1] was 114 nM and the IC50 [2] was 294 nM.

For `OC[C@@H]1[C@@H](O)[C@H](O)[C@@H](O)CN1CCCCCCNc1cc(Cl)cc(-c2ncco2)c1` [Compound 1211, (2R,3R,4R,5S)-1-(6-{[3-chloro-5-(1,3-oxazol-2-yl)phenyl]amino}hexyl)-2-(hydroxymethyl)piperidine-3,4,5-triol], the IC50 [1] was 326 nM and the IC50 [2] was 72 nM.

In the case of `[N-]=[N+]=Nc1ccc(NCCOCCN2C[C@H](O)[C@@H](O)[C@H](O)[C@H]2CO)c([N+](=O)[O-])c1` [Compound 1255, (2R,3R,4R,5S)-1-(2-{2-[(4-azido-2-nitrophenyl)amino]ethoxy}ethyl)-2-(hydroxymethyl)piperidine-3,4,5-triol], the IC50 [1] is reported as 3080 nM and the IC50 [2] is reported as 56 nM.

`O=S(=O)(Nc1cc(-c2ncccn2)ccc1NCCCCCCN1C[C@H](O)[C@@H](O)[C@H](O)[C@H]1CO)C1CC1` [Compound 1227, N-[5-(pyrimidin-2-yl)-2-({6-[(2R,3R,4R,5S)-3,4,5-trihydroxy-2-(hydroxy-methyl)piperidin-1-yl]hexyl}amino)phenyl]cyclopropanesulfonamide] showed an IC50 [1] of 592 nM and an IC50 [2] of 104 nM.

`[N-]=[N+]=Nc1ccc(NCCS(=O)(=O)CCCN2C[C@H](O)[C@@H](O)[C@H](O)[C@H]2CO)c([N+](=O)[O-])c1` [Compound 1274, (2R,3R,4R,5S)-1-(3-{2-[(4-azido-2-nitrophenyl)amino]ethane-sulfonyl}propyl)-2-(hydroxymethyl)piperidine-3,4,5-triol] was tested, and the IC50 [1] was 2990 nM and the IC50 [2] was 738 nM.

For `COc1ccc(CCCCCN2C[C@H](O)[C@@H](O)[C@H](O)[C@H]2CO)cc1` [Compound 1310, (2R,3R,4R,5S)-2-(hydroxymethyl)-1-[5-(4-methoxyphenyl)pentyl]piperidine-3,4,5-triol], the IC50 [1] was 16900 nM and the IC50 [2] was 371 nM.

Compound `[N-]=[N+]=Nc1ccc(N2CC(OCCN3C[C@H](O)[C@@H](O)[C@H](O)[C@H]3CO)C2)c([N+](=O)[O-])c1` [Compound 1252, (2R,3R,4R,5S)-1-(2-{[1-(4-azido-2-nitrophenyl)azetidin-3-yl]oxy}ethyl)-2-(hydroxymethyl)piperidine-3,4,5-triol] has an IC50 [1] of 8670 nM and an IC50 [2] of 80 nM.

With `OC[C@@H]1[C@@H](O)[C@H](O)[C@@H](O)CN1CCCCCCNc1ccc(-c2ncccn2)cc1C(F)(F)F` [Compound 1258, (2R,3R,4R,5S)-2-(hydroxymethyl)-1-(6-{[4-(pyrimidin-2-yl)-2-(trifluoromethyl)phenyl]amino}hexyl)piperidine-3,4,5-triol] the IC50 [1] was 1350 nM and the IC50 [2] was 108 nM.

In the case of `Nc1ccc(NCCCCCCCCN2C[C@H](O)[C@@H](O)[C@H](O)[C@H]2CO)c([N+](=O)[O-])c1Cl` [Compound 1277, (2R,3R,4R,5S)-1-{8-[(4-amino-3-chloro-2-nitrophenyl)amino]octyl} 2-(hydroxymethyl)piperidine-3,4,5-triol], the IC50 [1] is reported as < 10 nM and the IC50 [2] is reported as 133 nM.

For `CN(C)Cc1ccc(NCCCCCCN2C[C@H](O)[C@@H](O)[C@H](O)[C@H]2CO)c(F)c1` [Compound 1236, (2R,3R,4R,5S)-1-[6-({4-[(dimethylamino)methyl]-2-fluorophenyl}amino)hexyl]-2-(hydroxymethyl)piperidine-3,4,5-triol], the IC50 [1] was 4630 nM and the IC50 [2] was 254 nM.

In the case of `CS(=O)(=O)c1cc(NCc2cccc(CN3C[C@H](O)[C@@H](O)[C@H](O)[C@H]3CO)c2)cc(N2CCOCC2)c1` [Compound 1036, (2R,3R,4R,5S)-2-(hydroxymethyl)-1-{[3-({[3-methanesulfonyl-5-(morpholin-4-yl)phenyl]amino}methyl)phenyl]methyl}piperidine-3,4,5-triol], the IC50 [1] is reported as > 100000 nM and the IC50 [2] is reported as 219 nM.

From patent publication US20250197372A1 (priority 2020, published 2025)
